Data as given in the supplement of paper PMC8149375.

What was measured:
Conditions in all cases: treatment: drug + dasatinib (fixed dose, not stated); 5 days
769-P [1] = experiment: AUC of dose-response viability curve, drug + dasatinib, normalised to DMSO (arbitrary (AUC of normalised viability)); higher = less growth inhibition
Method: (§1)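 Primary HTS combination arm: 8 RCC cell lines treated with 8 doses (up to 10 uM) of each library drug plus a fixed dose of dasatinib (dose not stated) for 5 days; viability read by CellTiter-Glo and normalised to DMSO. GI50 was fitted with XLfit, AUC is the area under the dose-response curve, and minimum viability is the lowest fraction of DMSO viability across doses.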

ACHN [2] = experiment: as above
Method: as §1

UO-31 [3] = experiment: as above
Method: as §1

TK-10 [4] = experiment: as above
Method: as §1

A498 [5] = experiment: as above
Method: as §1

CAKI-1 [6] = experiment: as above
Method: as §1

786-O [7] = experiment: as above
Method: as §1

SN12C [8] = experiment: as above
Method: as §1

769-P [9] = experiment: GI50 of drug in presence of dasatinib; higher = less potent
Method: as §1

ACHN [10] = experiment: as above
Method: as §1

UO-31 [11] = experiment: as above
Method: as §1

TK-10 [12] = experiment: as above
Method: as §1

A498 [13] = experiment: as above
Method: as §1

CAKI-1 [14] = experiment: as above
Method: as §1

786-O [15] = experiment: as above
Method: as §1

SN12C [16] = experiment: as above
Method: as §1

769-P [17] = experiment: minimum viability across doses, drug + dasatinib, relative to DMSO (fraction); higher = less growth inhibition
Method: as §1

ACHN [18] = experiment: as above
Method: as §1

UO-31 [19] = experiment: as above
Method: as §1

TK-10 [20] = experiment: as above
Method: as §1

A498 [21] = experiment: as above
Method: as §1

CAKI-1 [22] = experiment: as above
Method: as §1

786-O [23] = experiment: as above
Method: as §1

SN12C [24] = experiment: as above
Method: as §1

Row | GI50 of drug (ACHN [10]) [nM] | GI50 of drug (786-O [15]) [nM] | Structure (SMILES) | AUC of dose-response viability curve (769-P [1]) | AUC of dose-response viability curve (ACHN [2]) | AUC of dose-response viability curve (UO-31 [3]) | AUC of dose-response viability curve (TK-10 [4]) | AUC of dose-response viability curve (A498 [5]) | AUC of dose-response viability curve (CAKI-1 [6]) | AUC of dose-response viability curve (786-O [7]) | AUC of dose-response viability curve (SN12C [8]) | GI50 of drug (769-P [9]) [nM] | GI50 of drug (UO-31 [11]) [nM] | GI50 of drug (TK-10 [12]) [nM] | GI50 of drug (A498 [13]) [nM] | GI50 of drug (CAKI-1 [14]) [nM] | GI50 of drug (SN12C [16]) [nM] | minimum viability across doses (769-P [17]) | minimum viability across doses (ACHN [18]) | minimum viability across doses (UO-31 [19]) | minimum viability across doses (TK-10 [20]) | minimum viability across doses (A498 [21]) | minimum viability across doses (CAKI-1 [22]) | minimum viability across doses (786-O [23]) | minimum viability across doses (SN12C [24])
1 | 5.77 | 2860 | COc1cc2ncnc(Nc3cccc(Br)c3)c2cc1OC.Cl + Cc1nc(Nc2ncc(C(=O)Nc3c(C)cccc3Cl)s2)cc(N2CCN(CCO)CC2)n1 [dasatinib] | 1.69 | 1.18 | 2.94 | 2.19 | 3.5 | 2.22 | 2.14 | 2.32 | 111 | 8520 | 884 | > 10000 | 2490 | > 10000 | 0.157 | 0.181 | 0.0122 | 0.124 | 0.835 | 0.237 | 0.0127 | 0.547
2 | 90.6 | < 3 | CNC(=O)c1ccc(C)c(-n2c(C)cc(OCc3ccc(F)cc3F)c(Br)c2=O)c1 + Cc1nc(Nc2ncc(C(=O)Nc3c(C)cccc3Cl)s2)cc(N2CCN(CCO)CC2)n1 [dasatinib] | 2.22 | 1.68 | 4.38 | 2.23 | 3.58 | 2.3 | 1.89 | 2.42 | > 10000 | > 10000 | > 10000 | > 10000 | > 10000 | > 10000 | 0.558 | 0.346 | 1.15 | 0.541 | 0.937 | 0.561 | 0.457 | 0.64
3 | 566 | 469 | CCc1cccc(CC)c1NC(=O)N1Cc2[nH]nc(NC(=O)c3ccc(N4CCN(C)CC4)cc3)c2C1 + Cc1nc(Nc2ncc(C(=O)Nc3c(C)cccc3Cl)s2)cc(N2CCN(CCO)CC2)n1 [dasatinib] | 2.4 | 1.88 | 3.44 | 2.43 | 2.74 | 1.89 | 1.79 | 1.9 | > 10000 | 7530 | 4610 | 2720 | 818 | 641 | 0.565 | 0.129 | 0.31 | 0.319 | 0.406 | 0.0817 | 0.0687 | 0.117
